Legend:
[1] = target: T1, mGPDH (Rattus norvegicus, UniProt P35571); assay: Superoxide/H2O2 production by mGPDH in isolated skeletal muscle mitochondria (Amplex UltraRed); type: biochemical; settings: primary screen, ∼2.5 µM, average of duplicates; 16.7 mM glycerol phosphate, no added calcium
T1 construct: Activity of mGPDH in frozen-thawed skeletal muscle mitochondria was measured; from tissue; host or cells: skeletal muscle mitochondria
T1 sequence (P35571 43-727): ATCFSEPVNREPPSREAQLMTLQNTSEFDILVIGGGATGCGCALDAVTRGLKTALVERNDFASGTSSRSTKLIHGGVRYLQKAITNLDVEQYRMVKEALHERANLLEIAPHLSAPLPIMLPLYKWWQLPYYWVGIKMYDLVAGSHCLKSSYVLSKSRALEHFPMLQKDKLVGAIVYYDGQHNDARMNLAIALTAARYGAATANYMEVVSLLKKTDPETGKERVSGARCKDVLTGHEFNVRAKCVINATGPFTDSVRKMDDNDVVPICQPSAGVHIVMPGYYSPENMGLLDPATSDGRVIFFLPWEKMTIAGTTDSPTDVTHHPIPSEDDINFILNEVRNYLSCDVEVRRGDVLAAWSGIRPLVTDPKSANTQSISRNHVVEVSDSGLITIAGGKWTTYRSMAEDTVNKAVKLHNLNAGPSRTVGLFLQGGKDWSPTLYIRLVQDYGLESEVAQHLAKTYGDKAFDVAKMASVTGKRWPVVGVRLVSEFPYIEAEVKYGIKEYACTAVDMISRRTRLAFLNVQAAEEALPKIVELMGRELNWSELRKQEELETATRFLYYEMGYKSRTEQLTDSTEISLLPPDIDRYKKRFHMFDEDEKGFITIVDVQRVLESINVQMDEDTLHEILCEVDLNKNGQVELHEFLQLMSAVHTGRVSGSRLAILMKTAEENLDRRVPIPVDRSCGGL

[2] = tested on: flavin mononucleotide site of complex I (site IF) plus matrix NAD-linked dehydrogenases (site IF/DH); assay: Site-specific H2O2 production from site IF/DH in skeletal muscle mitochondria; type: biochemical, rat; settings: primary screen, ∼2.5 µM, average of duplicates
Description: (§1) Superoxide was measured as H2O2 after dismutation by endogenous or exogenous superoxide dismutase. Rates of total superoxide/H2O2 production were measured fluorimetrically using Amplex UltraRed in the presence of exogenous superoxide dismutase and horseradish peroxidase in a Varian Cary Eclipse fluorimeter as previously described. Rates of production from specific sites were determined as previously described using the following eight conditions: flavin mononucleotide site of complex I (site IF) plus matrix NAD-linked dehydrogenases (collectively "site IF/DH") with 5 mM glutamate, 5 mM malate, and 4 µM rotenone; ubiquinone-binding site of complex I (site IQ) with either 0.5 or 5 mM succinate; flavin site of complex II (site IIF) with either 15 µM palmitoylcarnitine, 2.5 µM antimycin A, and 2 µM myxothiazol or 0.5 mM succinate, 4 µM rotenone, 2.5 µM antimycin A, and 2 µM myxothiazol, [31]; mGPDH with 1.7 mM glycerol phosphate, 4 µM rotenone, 2.5 µM antimycin A, 2 µM myxothiazol, 1 mM malonate, and 250 nM free calcium; outer ubiquinone-binding site of complex III (site IIIQo) with either 0.5 or 5 mM succinate, 4 µM rotenone and 2.5 µM antimycin A [32]. Candidate small-molecule inhibitors were added prior to the start of measurements and H2O2 calibration curves were performed in the presence of tested compounds.
(§2) 3,200 compounds were tested initially at 2.5 µM (0.025% DMSO final) in duplicate on different plates against a panel of five distinct assays of site-specific superoxide/H2O2 production as described in the previous section with minor changes. […] Endpoint fluorescence was measured on a Perkin Elmer Victor V3 fluorescent plate reader. The fluorescence intensity of each well was normalized as % change from the average of eight DMSO controls on the same plate. Duplicate wells of each of four modulators of mitochondrial metabolism known to inhibit specific sites of superoxide/H2O2 production were included on each plate as positive controls and the resulting fluorescence levels set as −100% change from DMSO controls. Known inhibitors included 20 mM aspartate (for site IF/DH), 1 µM FCCP (for site IQ), 10 mM malonate (for site IIF), and 2 µM myxothiazol (for site IIIQo). The background fluorescence of the FCCP wells in the site IQ assay was used to normalize mGPDH plates run in parallel. To minimize position-dependent effects across each assay plate, Tukey’s two-way median polish was applied to fluorescence values after initial normalization, [36]. Tukey’s polish is an iterative subtraction of the median row and column values from each well’s given row or column. The procedure is repeated until sequential medians for each row and column are zero and positional gradients in fluorescence are eliminated.

[3] = tested on: ubiquinone-binding site of complex I (site IQ); assay: Site-specific H2O2 production from site IQ in skeletal muscle mitochondria; type: biochemical, rat; settings: primary screen, ∼2.5 µM, average of duplicates; 5 mM succinate;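 also: H2O2 from superoxide detected by Amplex UltraRed fluorescence with added superoxide dismutase and horseradish peroxidase, endpoint read 30–40 min after substrate addition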
[4] = target: T2, flavin site of complex II (site IIF) (Rattus norvegicus, UniProt Q920L2); assay: Site-specific H2O2 production from site IIF in skeletal muscle mitochondria; type: biochemical; settings: primary screen, ∼2.5 µM, average of duplicates; palmitoylcarnitine
T2 construct: from tissue; host or cells: skeletal muscle mitochondria
Description: as §1, §2

[5] = target: T3, outer ubiquinone-binding site of complex III (site IIIQo) (Rattus norvegicus, UniProt P00159+P20788); assay: Site-specific H2O2 production from site IIIQo in skeletal muscle mitochondria; type: biochemical; settings: primary screen, ∼2.5 µM, average of duplicates; 5 mM succinate
T3 construct: from tissue; host or cells: skeletal muscle mitochondria
Description: as §1, §2

[6] = tested on: skeletal muscle mitochondria; assay: Mitochondrial membrane potential (ΔΨm, TMRM) powered by glutamate plus malate; type: biochemical, rat; settings: primary screen, ∼2.5 µM, average of duplicates; glutamate and malate
Description: Mitochondrial membrane potential (ΔΨm) was estimated fluorimetrically as described previously [33] on the Varian fluorimeter, except the potentiometric dye TMRM was used in quench-mode in place of safranine O [34]. […] The effect of putative small-molecule inhibitors was normalized as the % change in fluorescence between vehicle treatment and complete depolarization by the uncoupler carbonyl cyanide-4-(trifluoromethoxy)phenylhydrazone (FCCP, 2 µM) added at the end of each run. When indicated, the K^+/H^+ exchanger nigericin (80 ng ⋅ ml^−1) was added to collapse the pH gradient across the mitochondrial inner membrane (ΔpH) and maximize ΔΨm.
All assays were performed with stirring at 37°C.
Additionally, four microplate assays for ΔΨm were run in parallel to the H2O2 assays. These assays were as described under “Measurement of mitochondrial H2O2 production and membrane potential” except that each substrate condition was assayed in a separate microplate. […] Plates were incubated in the dark at room temperature for 30–40 min (H2O2) or 10–15 min (ΔΨm) after the addition of substrate, and endpoint fluorescence was measured on the Victor plate reader. […] Endpoints for the ΔΨm assays were determined in pilot experiments as the times for TMRM accumulation to reach a steady state. At room temperature, this was typically ∼ 5 min and remained stable for at least 30 min. Endpoint fluorescence values were normalized as described in the previous section with wells containing FCCP serving as positive controls for the ΔΨm assays.

T2 sequence (Q920L2 35-656): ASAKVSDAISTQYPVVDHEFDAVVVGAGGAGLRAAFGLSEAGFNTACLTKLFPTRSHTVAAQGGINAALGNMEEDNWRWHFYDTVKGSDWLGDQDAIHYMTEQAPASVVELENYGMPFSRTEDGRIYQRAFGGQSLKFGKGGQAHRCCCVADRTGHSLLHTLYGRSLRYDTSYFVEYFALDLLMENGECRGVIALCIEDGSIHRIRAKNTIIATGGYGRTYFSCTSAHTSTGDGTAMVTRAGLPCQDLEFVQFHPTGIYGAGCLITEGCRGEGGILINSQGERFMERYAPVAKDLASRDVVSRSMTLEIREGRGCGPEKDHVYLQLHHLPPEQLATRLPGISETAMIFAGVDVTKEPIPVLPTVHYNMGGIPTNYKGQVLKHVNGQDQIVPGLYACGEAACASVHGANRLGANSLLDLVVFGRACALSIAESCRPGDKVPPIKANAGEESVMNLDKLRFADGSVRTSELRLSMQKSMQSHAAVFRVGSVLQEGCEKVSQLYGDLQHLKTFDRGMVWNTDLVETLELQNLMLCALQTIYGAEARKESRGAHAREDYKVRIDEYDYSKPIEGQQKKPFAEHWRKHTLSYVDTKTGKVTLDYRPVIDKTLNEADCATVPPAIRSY
T2 sequence (P21913 31-282 partner): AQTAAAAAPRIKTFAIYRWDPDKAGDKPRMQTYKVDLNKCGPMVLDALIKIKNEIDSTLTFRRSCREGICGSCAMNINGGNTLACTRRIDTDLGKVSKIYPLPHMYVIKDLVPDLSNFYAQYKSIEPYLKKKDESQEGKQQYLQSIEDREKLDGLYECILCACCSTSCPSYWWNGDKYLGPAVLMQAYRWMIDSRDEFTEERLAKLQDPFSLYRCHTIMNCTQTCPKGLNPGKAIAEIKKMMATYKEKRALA
T2 sequence (Q641Z9 30-169 partner limits assumed): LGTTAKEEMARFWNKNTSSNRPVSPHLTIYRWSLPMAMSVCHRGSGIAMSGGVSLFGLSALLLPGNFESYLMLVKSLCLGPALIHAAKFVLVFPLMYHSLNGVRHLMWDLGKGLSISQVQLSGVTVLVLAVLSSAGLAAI
T2 sequence (Q6PCT8 57-159 partner): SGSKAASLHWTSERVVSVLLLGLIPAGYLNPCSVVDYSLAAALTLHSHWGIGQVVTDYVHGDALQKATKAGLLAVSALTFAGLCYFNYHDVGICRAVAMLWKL

SMILES	mGPDH (% change from DMSO) [1] [%]	IF/DH (% change from DMSO) [2] [%]	IQ (% change from DMSO) [3] [%]	IIF (% change from DMSO) [4] [%]	IIIQo (% change from DMSO) [5] [%]	ΔΨm (% change from DMSO) [6] [%]
Cc1ccc(S(=O)(=O)CCC#N)cc1C [compound 5210670]	-12.4	-4.6	0.4	-0.354	-15.9	-0.074
Cc1ccc(S(=O)(=O)c2cc(O)ccc2O)cc1C [compound 5210729]	-21.9	-32.6	-40.9	-53.2	-50.4	-0.6
O=C(O)CSc1cccc(C(=O)Nc2ccc(Br)cc2)c1 [compound 5210767]	-14.1	-0.5	-0.0908	1.3	-0.0236	-0.00715
CC(=O)c1c(C)n(-c2ccccc2)c2ccc(O)cc12 [compound 5215317]	-14.1	-34.7	-13.7	-26.9	-6.4	0.144
COc1ccc(C(=O)Nc2ccc(S(=O)(=O)Nc3nc(C)cc(C)n3)cc2)c(OC)c1 [compound 5219504]	-29.8	-30.7	-19.3	-44.3	-8.8	1.4
CC1(C)CC(=O)C2=C(C1)Nc1cc(Cl)ccc1S2 [compound 5219661]	-22.7	-91.8	-52.0	-32.9	-20.2	-1.8
Cc1nc2ccc(Cl)cc2c2c(N)c3ccccc3n12 [compound 5219795]	-23.3	-30.5	-14.8	-49.0	-23.3	0.6
CC1=Nc2c([nH]c3ccccc23)-c2cc(C)ccc2N1.Cl [compound 5219818]	-31.6	-40.2	-50.1	-51.0	-36.6	-0.5
CCCCSc1nnc2c(n1)[nH]c1ccc(C)cc12 [compound 5225633]	-10.0	16.4	-2.4	-0.9	-13.3	1.1
CCC1CCCCN1C/C=C/c1ccc(N(C)C)cc1 (stereo not drawn) [compound 5429735]	-10.7	-23.1	-0.0537	-4.3	-11.7	0.3
